This note sets out measurements from ChEMBL document CHEMBL3997821, “Design, synthesis and evaluation of novel pyrazolo-pyrimido[4,5-d]pyrimidine derivatives as potent antibacterial and biofilm inhibitors” (Bioorg Med Chem Lett, 2017).

In assay [1] the test system is Staphylococcus aureus. The assay is described as follows: Bactericidal activity against Staphylococcus aureus MLS16 MTCC 2940 after 24 hrs by serial dilution method. The class given is functional. The conditions noted are these: MLS16 MTCC 2940, 24 h.
Assay [2] deals with Staphylococcus aureus. The experiment in a line: Antibacterial activity against Staphylococcus aureus MTCC 96 after 24 hrs by well diffusion method. The conditions noted are these: MTCC 96, 24 h. The class given is functional.
The next assay has as its system Raoultella planticola. The assay is described as follows: Antibacterial activity against Klebsiella planticola MTCC 530 after 24 hrs by well diffusion method. Particulars: MTCC 530, 24 h. The class given is functional.
The test system of assay [3] is Micrococcus luteus. The assay is described as follows: Bactericidal activity against Micrococcus luteus MTCC 2470 after 24 hrs by serial dilution method. The class given is functional. Particulars: MTCC 2470, 24 h.
For the next assay, the system named is Pseudomonas aeruginosa. The assay is described as follows: Antibacterial activity against Pseudomonas aeruginosa MTCC 2453 after 24 hrs by well diffusion method. The conditions noted are these: MTCC 2453, 24 h. Type of assay: functional.
For another assay, the system named is Escherichia coli. The assay is described as follows: Antibacterial activity against Escherichia coli MTCC 739 after 24 hrs by well diffusion method. Particulars: MTCC 739, 24 h. Type of assay: functional. In general terms: A growth-free zone around the sample is the usual read-out of agar diffusion tests.
In assay [4] the test system is Staphylococcus aureus. The experiment in a line: Antibacterial activity against Staphylococcus aureus MLS16 MTCC 2940 after 24 hrs by well diffusion method. The class given is functional. Particulars: MLS16 MTCC 2940, 24 h.
The subject of assay [5] is Bacillus subtilis. The assay is described as follows: Antibacterial activity against Bacillus subtilis MTCC 121 after 24 hrs by well diffusion method. The class given is functional. The conditions noted are these: MTCC 121, 24 h.
Assay [6] has as its system Micrococcus luteus. The assay is described as follows: Induction of ROS generation in Micrococcus luteus MTCC 2470 mature biofilms at up to 4 ug/ml after 24 hrs by DCFH-DA staining based fluorometric assay. The class given is functional.
In assay [7] the test system is Staphylococcus aureus. The experiment in a line: Antibiofilm activity against Staphylococcus aureus MLS16 MTCC 2940 after 24 hrs by crystal violet staining based assay. Type of assay: functional. Particulars: MLS16 MTCC 2940, 24 h.
The subject of assay [8] is Bacillus subtilis. The experiment in a line: Bactericidal activity against Bacillus subtilis MTCC 121 after 24 hrs by serial dilution method. The class given is functional. The conditions noted are these: MTCC 121, 24 h.
Assay [9] concerns Micrococcus luteus. The experiment in a line: Antibacterial activity against Micrococcus luteus MTCC 2470 after 24 hrs by well diffusion method. The class given is functional. The conditions noted are these: MTCC 2470, 24 h.
For assay [10], the system named is Staphylococcus aureus. The assay is described as follows: Bactericidal activity against Staphylococcus aureus MTCC 96 after 24 hrs by serial dilution method. Type of assay: functional. The conditions noted are these: MTCC 96, 24 h.
Assay [11] has as its system Bacillus subtilis. The experiment in a line: Antibiofilm activity against Bacillus subtilis MTCC 121 after 24 hrs by crystal violet staining based assay. The class given is functional. The conditions noted are these: MTCC 121, 24 h.
In assay [12] the test system is Bacillus subtilis. The experiment in a line: Ratio of MBC to MIC for Bacillus subtilis MTCC 121. Type of assay: functional.
For assay [13], the system named is Micrococcus luteus. The experiment in a line: Antibiofilm activity against Micrococcus luteus MTCC 2470 after 24 hrs by crystal violet staining based assay. The class given is functional. Particulars: MTCC 2470, 24 h.
The test system of assay [14] is Staphylococcus aureus. The experiment in a line: Ratio of MBC to MIC for Staphylococcus aureus MLS16 MTCC 2940. Type of assay: functional.
Assay [15] concerns Micrococcus luteus. The experiment in a line: Ratio of MBC to MIC for Micrococcus luteus MTCC 2470. The class given is functional.
Assay [16] relates to Staphylococcus aureus. The experiment in a line: Antibiofilm activity against Staphylococcus aureus MTCC 96 after 24 hrs by crystal violet staining based assay. The class given is functional. Particulars: MTCC 96, 24 h.
Assay [17] relates to Staphylococcus aureus. The experiment in a line: Ratio of MBC to MIC for Staphylococcus aureus MTCC 96. The class given is functional.
For assay [18], the system named is Micrococcus luteus. The experiment in a line: Induction of intracellular ROS accumulation in Micrococcus luteus MTCC 2470 sessile biofilm cells at 0.5 to 4 ug/ml after 24 hrs by DCFH-DA staining-based assay. The class given is functional, cell-based.
Assay [19] has as its system Micrococcus luteus. The experiment in a line: Induction of membrane permeability in Micrococcus luteus MTCC 2470 assessed as protein leakage at 1 to 2 times antibacterial MIC up to 12 hrs by Bradford protein assay. The class given is functional.
In assay [20] the test system is Micrococcus luteus. The experiment in a line: Induction of ROS generation in Micrococcus luteus MTCC 2470 mature biofilms at 0.5 to 2 ug/ml after 24 hrs by DCFH-DA staining based fluorometric assay. The class given is functional.
For assay [21], the system named is Micrococcus luteus. The assay is described as follows: Induction of membrane permeability in Micrococcus luteus MTCC 2470 assessed as protein leakage at 1 to 2 times antibacterial MIC after 12 to 24 hrs by Bradford protein assay. Type of assay: functional.

In brackets after ≈: the same amount, converted by molar mass. Activity calls are given as the source filed them. Some results are limits rather than exact numbers.

As a reminder, the MBC is the smallest concentration meeting the test's criterion for killing. A high value points to less potent killing. By MIC is commonly meant the lowest concentration that inhibits growth of the organism. Lower therefore signals a more susceptible organism. The term IC50 denotes the point on the concentration scale where inhibition reaches its midpoint. Read a low IC50 as greater potency in that assay.

As to `O=C(O)c1cn(C2CC2)c2cc(N3CCNCC3)c(F)cc2c1=O` [CIPROFLOXACIN], the MBC against Staphylococcus aureus [1] amounted to 0.9 µg/mL (≈ 2.72 µM); in the assay on Micrococcus luteus [3] it was 1.9 µg/mL (≈ 5.73 µM); against Bacillus subtilis [8], 0.9 µg/mL (≈ 2.72 µM); in the assay with Staphylococcus aureus [10], 1.9 µg/mL (≈ 5.73 µM). The MIC against Staphylococcus aureus [2], in the assay on Raoultella planticola, against Pseudomonas aeruginosa, against Escherichia coli, against Staphylococcus aureus [4] and in the assay with Bacillus subtilis [5] was 0.9 µg/mL (≈ 2.72 µM) each time. In the assay with Micrococcus luteus [9], this molecule yielded an MIC of 0.9 µg/mL (≈ 2.72 µM). The result in the assay with Micrococcus luteus [6] was Active. In the assay on Staphylococcus aureus [7], the midpoint of inhibition, the IC50, lay at 0.4 µg/mL (≈ 1.21 µM).
With `Cc1ccc(-c2nn(-c3ccccc3)cc2C2c3c(n(C)c(=O)n(C)c3=O)N=CN2c2ccc(C)cc2)cc1` (configuration not stated), the MBC with Staphylococcus aureus [1] was found to be 15.6 µg/mL (≈ 30.2 µM); against Micrococcus luteus [3], 15.6 µg/mL (≈ 30.2 µM); in the assay on Bacillus subtilis [8], 31.2 µg/mL (≈ 60.4 µM); with Staphylococcus aureus [10], 15.6 µg/mL (≈ 30.2 µM). The MIC against Staphylococcus aureus [2] is 7.8 µg/mL (≈ 15.1 µM); against Raoultella planticola it was more than 125 µg/mL; against Pseudomonas aeruginosa, more than 125 µg/mL; in the assay on Escherichia coli, more than 125 µg/mL; against Staphylococcus aureus [4], 15.6 µg/mL (≈ 30.2 µM); in the assay with Bacillus subtilis [5], 7.8 µg/mL (≈ 15.1 µM). This molecule also showed an MIC in the assay with Micrococcus luteus [9] of 7.8 µg/mL (≈ 15.1 µM). Moreover, the IC50 with Bacillus subtilis [11] was 3.6 µg/mL (≈ 6.97 µM); with Micrococcus luteus [13] it was 3.3 µg/mL (≈ 6.39 µM); with Staphylococcus aureus [7] it was 8.2 µg/mL (≈ 15.9 µM); in the assay with Staphylococcus aureus [16] it was 4.2 µg/mL (≈ 8.13 µM). In addition, the Ratio with Bacillus subtilis [12], in the assay on Staphylococcus aureus [14], with Micrococcus luteus [15] and in the assay on Staphylococcus aureus [17] was 2 in each case.
In the case of `Cc1ccc(-c2nn(-c3ccccc3)cc2C2c3c(n(C)c(=O)n(C)c3=O)N=CN2c2ccc(Cl)cc2)cc1` (configuration not stated), the MBC in the assay with Staphylococcus aureus [1] was 31.2 µg/mL (≈ 58.1 µM); against Micrococcus luteus [3], 15.6 µg/mL (≈ 29 µM); in the assay on Bacillus subtilis [8], 7.8 µg/mL (≈ 14.5 µM); against Staphylococcus aureus [10] it was 7.8 µg/mL (≈ 14.5 µM). Moreover, the MIC in the assay with Staphylococcus aureus [2] was 7.8 µg/mL (≈ 14.5 µM); against Raoultella planticola, more than 125 µg/mL; against Pseudomonas aeruginosa it was more than 125 µg/mL; in the assay on Escherichia coli, more than 125 µg/mL; against Staphylococcus aureus [4] it was 7.8 µg/mL (≈ 14.5 µM); against Bacillus subtilis [5], 7.8 µg/mL (≈ 14.5 µM). In addition, the MIC against Micrococcus luteus [9] worked out at 3.9 µg/mL (≈ 7.26 µM). Also, the IC50 in the assay on Bacillus subtilis [11] was 4.1 µg/mL (≈ 7.63 µM); in the assay with Micrococcus luteus [13] it was 1.8 µg/mL (≈ 3.35 µM); in the assay on Staphylococcus aureus [7] it was 4.4 µg/mL (≈ 8.19 µM); in the assay with Staphylococcus aureus [16] it was 3.9 µg/mL (≈ 7.26 µM). Moreover, the result in the assay on Micrococcus luteus [18], in the assay on Micrococcus luteus [20] and with Micrococcus luteus [21] was Active. For the same molecule, the outcome in the assay with Micrococcus luteus [19] was inactive. Also, the Ratio with Micrococcus luteus [15] and in the assay on Staphylococcus aureus [17] was 2 in each case.
Take `Cc1ccc(N2C=Nc3c(c(=O)n(C)c(=O)n3C)C2c2cn(-c3ccccc3)nc2-c2ccc([N+](=O)[O-])cc2)cc1` (configuration not stated): the MBC was determined as 15.6 µg/mL (≈ 28.5 µM) against Staphylococcus aureus [1], 15.6 µg/mL (≈ 28.5 µM) in the assay on Micrococcus luteus [3], 31.2 µg/mL (≈ 57 µM) against Bacillus subtilis [8] and 31.2 µg/mL (≈ 57 µM) against Staphylococcus aureus [10]. Besides, the MIC against Staphylococcus aureus [2] is 15.6 µg/mL (≈ 28.5 µM); against Raoultella planticola, more than 125 µg/mL; against Pseudomonas aeruginosa, more than 125 µg/mL; in the assay with Escherichia coli it was more than 125 µg/mL; in the assay on Staphylococcus aureus [4], 7.8 µg/mL (≈ 14.2 µM); against Bacillus subtilis [5] it was 7.8 µg/mL (≈ 14.2 µM). The same molecule gave an MIC with Micrococcus luteus [9] of 15.6 µg/mL (≈ 28.5 µM). For the same molecule, the IC50 in the assay with Bacillus subtilis [11] worked out at 18.3 µg/mL (≈ 33.4 µM); with Micrococcus luteus [13], 10.1 µg/mL (≈ 18.4 µM); in the assay on Staphylococcus aureus [7] it was 9.5 µg/mL (≈ 17.3 µM); in the assay on Staphylococcus aureus [16], 12.6 µg/mL (≈ 23 µM). Moreover, the Ratio with Bacillus subtilis [12], in the assay on Staphylococcus aureus [14], in the assay with Micrococcus luteus [15] and with Staphylococcus aureus [17] was 2 each time.
